Reference: patent US8349553B2, “Jasmonate based assays for identifying compounds that selectively inhibit mitochondrial bound hexokinases” (Ramot at Tel Aviv University Ltd., priority 2007, dated 2013)

Legend:
[1] = tested on: mitochondria-bound hexokinase (mitochondrial fraction of Molt-4 cells); experiment: Hexokinase detachment assay, mitochondrial fraction of Molt-4 cells; type: biochemical, human; details: Molt-4 mitochondrial fraction; 30 minutes at 37° C.
Description: Mitochondrial fraction was prepared by mechanical lysis and differential centrifugation. All stages were performed on ice. Cells or extracted tissues were washed with PBS and disrupted by homogenization in extraction buffer (Sucrose 250 mM, HEPES-NaOH 10 mM, pH 7.2) freshly supplemented with 0.1 mM EDTA and Protease Inhibitors cocktail (Sigma). For each gram of cells or tissue, 4 volumes of extraction buffer were applied. The homogenate volume was doubled with the extraction buffer, and tissue and cell debris as well as nuclei were pelleted by centrifugation of 1,000 g for 10 minutes. The supernatant was further spun at 13,000 g for 10 minutes twice. Endoplasmic reticulum layer was removed. The pellet, designated as the mitochondrial fraction, was suspended in the appropriate buffer, depending on the assay for which the mitochondrial fraction was prepared. Mitochondrial fractions were used immediately or stored at −196° C. […] Activity of hexokinase in the supernatant (i.e., activity of the detached hexokinase) was determined spectrophotometrically at 340 nm. […] Mitochondrial fractions isolated from different cancer cells, namely Molt-4 cells, BCL-1 leukemic cells and B16 melanoma tumors were incubated for 30 minutes at 37° C., and the activity of unbound hexokinase was measured and compared to the activity of spontaneously (control) detached hexokinase. […]

CT26 cells = experiment: Trypan blue exclusion test, CT26; type: cell-based, murine; details: 3 mM, 1 hour
Description: (§1) Cell death was determined by trypan blue exclusion. […] Alternatively, cytotoxicity was determined using hemacolor staining. […] In order to test the correlation between cellular ATP levels and the release of hexokinase from mitochondrial fraction different cancer cells, namely Molt-4 cells, BCL-1 leukemic cells and B16 melanoma tumors were exposed to various methyl jasmonate concentrations. […] CT26 and Molt-4 cells were then seeded in 24 well plates. CT26 cells were allowed to adhere over night. Cells were exposed to methyl jasmonate (MJ; 3 mM) for 1 hour. Trypan blue exclusion test was performed and cells were counted.

Molt-4 cells = experiment: Trypan blue exclusion test, Molt-4; type: cell-based, human; details: 3 mM, 1 hour
Description: as §1

[2] = tested on: mitochondrial fraction of mouse liver; experiment: Mitochondrial swelling assay, mouse liver; type: biochemical; details: 1 mM
Description: Freshly isolated mitochondrial fraction was washed with extraction buffer to remove EDTA and resuspended in swelling buffer (Mannitol 220 mM, Sucrose 70 mM, Tris, pH 7.2, 150 mM, KH2PO4, pH 7.2, 0.2 mM; 0.2 mg in 100 μL) freshly supplemented with potassium succinate, pH 7.2, 5 mM. Every component was sodium-free. Optical density was monitored at the wave length of 540 nm for 2-5 minutes before the addition of the examined reagents, e.g. methyl jasmonate, and for additional 20 minutes afterwards.
In order to examine the consistency of the relationship between the ability of methyl jasmonate to detach bound hexokinase and mitochondrial damage, methyl jasmonate was tested in mouse brain in comparison to mouse liver. The comparison was performed due to known differences of mitochondrial hexokinase content between mouse brain vs. its liver. It is well established in the art that brain mitochondrial fraction is rich in bound hexokinase, while liver mitochondrial fraction is essentially devoid of it (Wilson, 1995). […] Mitochondrial fractions were incubated for either 10, 30 or 60 minutes at 37° C. The activity of unbound hexokinase was measured and compared to the activity of spontaneously (control) detached hexokinase. Consequently, the ability of methyl jasmonate to induce swelling in mitochondrial fraction isolated from mouse brain and liver was tested.

[3] = tested on: CT26 cells transfected with pcDNA3-HKII or pcDNA3; experiment: ATP depletion in CT26 cells over-expressing hexokinase II; type: cell-based, murine; details: 60 minutes exposure
Description: The CellTiter-Glo™ Luminescent Cell Viability Assay (Promega, Madison, Wis., U.S.A.) was employed (Fingrut, 2005). Upon completion of a given experiment, plates were equilibrated to room temperature. CellTiter-Glo™ reagent containing luciferin and luciferase was added to each well and the plates were mixed on an orbital shaker for 2 minutes to induce cell lysis. In the presence of ATP, Mg^2+ and molecular oxygen, mono-oxidation of luciferin is catalyzed by luciferase, generating a luminescence signal. Cells were then incubated for 10 minutes at room temperature to stabilize the luminescence signal. Luminescence was recorded using Kodak digital science—Image station 440 CD. Luminescence is directly proportional to ATP concentration. ATP depletion (% of control) was calculated in the following way: {(luminescence of control cells−luminescence of drug-treated cells)/luminescence of control cells}×100.

hexokinase = experiment: Hexokinase activity, agent added directly to the coupled assay mixture; type: biochemical; details: coupled pyruvate kinase/lactate dehydrogenase assay, 340 nm
[4] = Solubility in SPR running buffer; type: physicochemical; details: PBS X 1 with 0.005% Tween and 5% DMSO
Description: SPR using ProteOn-EP5 (Bio-Rad, Hercules, Calif., USA) system has been applied to study the direct interaction of methyl jasmonate with hexokinase. This system allowed measuring ligand-analyte interactions in a 6×6 format in real time. Purified rat brain HKI and rabbit immunoglobulin G (Rb IgG; ligands) were diluted in 10 mM Na acetate pH 4 and 4.5, respectively, and coupled to a GLM sensor surface activated with 37.5 mg/ml N-Ethyl-N′-(3′ dimethylaminopropyl) carbodiimide hydrochloride and 7.5 mg/ml N-hydroxysuccinimide. HKI and IgG were added to saturate the chip at 100 μg/ml. Remaining reactive groups on the chip were then inactivated with 1 M ethanolamine pH 8.5. […] Methyl jasmonate and jasmonic acid (analytes) were diluted in running buffer (PBS X 1 with 0.005% Tween and 5% DMSO) and injected onto the sensor chip at varying concentrations. All experiments were performed at flow rate of 50 μl/min, at 25° C.

For CC/C=C\CC1C(=O)CCC1CC(=O)OC (centres unmarked) [methyl jasmonate], the “detachment of hexokinase (activity of unbound hexokinase compared to control)” value [1] was “detached hexokinase from mitochondrial fraction isolated from the three different cancer cells”, the “live/dead cells by Trypan blue exclusion” value (CT26 cells) was “still alive after 60 minutes” and the “sensitivity of Molt-4 relative to CT26 cells” value (Molt-4 cells) was “showed increased sensitivity with respect to CT26 tumor cells”. The “live/dead cells by Trypan blue exclusion” value (Molt-4 cells; Molt-4) was “still alive after 60 minutes”, the “mitochondrial swelling (optical density at 540 nm)” value [2] was “not in liver” and the “depletion of cellular ATP levels, hexokinase II over-expressing vs. control cells” value [3] was “decreased in cells with higher expression of hexokinase II”. The “influence on hexokinase activity when added directly to the assay mixture” value (hexokinase) was “neither methyl jasmonate nor jasmonic acid added directly to the assay mixture, influence hexokinase activity” and the “solubility in the running buffer” value [4] was “limited solubility”.
